# Data reported in US10632106B2, “Methods of cancer treatment with 2-(1′H-Indole-3′-carbonyl)-thiazole-4-carboxylic acid methyl ester” (Ariagen, Inc., priority 2009, dated 2020).
# Experiments:
# [1] = PK studies of ITE in male nude mice (single dosing); format: in vivo; conditions: for AUC / half-life: male, nude, mouse, plasma
# Method: Male nude mice were also used in PK (pharmacokinetic) studies. For i.v. injection, ITE at 1 mg/kg b.w. was administered with DMSO as vehicle via tail vein. For i.p. Injection, ITE at 10, 40, and 80 mg/kg b.w. was delivered with DMSO via lower left abdominal quadrant. In p.o. injection, ITE at 40 and 80 mg/kg b.w. were administered with a vehicle of Labrasol:PEG 400 (2:8, v/v) via oral gavage. Every 15 mice were given a single injection at each dosing level and every 3 of the dosed mice were used to collect blood sample at each time point (0, 0.083, 0.25, 0.5, 1, 2, 4, 8, 24 hr.). Animals were rotated to be sampled twice each but the duration between the two sampling times was at least 110 min. The animal was anesthetized under Isoflurane and restrained manually. Approximately 150 μl of whole blood at each time point is collected (via retro-orbital puncture) into a K2-EDTA tube. Blood samples were put on ice and processed to plasma (4,000 g, 5 min, 4° C.) within 15 min post sampling. Plasma samples were stored at −80° C. until analysis. An aliquot of 20 μl plasma sample was added with 20 μl of an internal standard (Glipizide, 500 ng/ml in ΔCN, for extraction efficiency) to 120 μl of ΔCN (acetonitrile). The mixture was vortexed at 1,500 rpm for 2 min. and then centrifuged at 12,000 rpm for 5 min. Five (5) μl of the supernatant was injected into an LC-MS/MS system (API 4000, Foster City, Calif., USA). A Gemini-C18 column (2.0×50 mm, 5 μm) was used and the LC (liquid chromatography) was run at a flow rate of 0.45 ml/min. with the following program: where Pump A was for 1 mM NH4OAc (ammonium acetate) in water plus 0.025% FA (formic acid) whereas Pump B for 1 mM NH4OAC in acetonitrile plus 0.025% FA. The negative ionization process of the mass spectrometry was operated at an APCI (Atmospheric Pressure Chemical Ionization) mode while the detection at a MRM (Multiple Reaction Monitoring) mode. ITE was identified by recognizing an LC retention time of 2.5 min. and two mass peaks at 285.0 (before collision) and 142.0 m/z (after collision) while the internal standard of 2.35 min. and two mass peaks at 444.3 (before collision) and 319.3 m/z (after collision). ITE was quantified by a standard curve generated every time by a series of known quantities of ITE running through both the extraction/precipitation process after mixing with mouse plasma and the LC-MS/MS system. The WinNonlin V5.2 statistics software (Pharsight Corporation, California, USA) was used to generate PK parameters such as Cmax, Tmax, T1/2, and AUC (Area under Curve) etc. using a non-compartmental model. Results
# [2] = test system: Murine Lewis lung cancer cell line LLC tumors; test: Syngeneic murine Lewis lung cancer (LLC) model in C57BL/6 mice; format: in vivo; conditions: for TGI (Tumor Growth Inhibition): TGI=ΔT/ΔC×100%
# Method: All the procedures related to animal handling, care, and the treatment in the study were performed following guidelines approved by an Institutional Animal Care and Use Committee (IACUC) of Crown Bioscience, Inc. (Santa Clara, Calif., USA, a contract research organization we hired) based on the guidance of the Association for Assessment and Accreditation of Laboratory Animal Care (AAALAC). Animals were checked for any effects of tumor growth and drug treatment on normal behavior such as mobility, food and water consumption, body weight gain/loss (gross body weights were measured twice weekly), eye/hair matting, and any other abnormal effect. Death and observed clinical signs were recorded on the basis of the number of animals within each group. Individual animals with a tumor volume exceeding 3,000 mm^3 or animals of a group with a mean tumor volume exceeding 2,000 mm^3 were euthanized. In addition, animals showing signs of severe distress and/or pain, dropping body weight more than 20% from that at the start of treatment, or losing the capability of accessing adequate food or water were humanely sacrificed.
# Tumor volume was measured twice weekly in two dimensions using a caliper and the volume was calculated with a formula of: V=0.5 a×b^2, where a and b are the long and short diameter (in mm) of a tumor, respectively. The tumor volume was then used for calculations of both TGI (Tumor Growth Inhibition) and TGD (Tumor Growth Delay). The TGI was determined by: TGI=ΔT/ΔC×100%, where ΔT was a difference between the mean tumor volume at a specified day of observation and that at the day treatment starts (day 1) for a drug treated group whereas ΔC was the same difference measured for the control group. The TGD was calculated as: TGD=T−C, where T was the time (in days) required for tumors in a drug treated group to reach a predetermined mean tumor volume and C the time (in days) in the control group to reach the same volume. A tumor weight was derived by equating 1,000 mm^3 in volume to 1,000 mg in weight. A net body weight was then derived by subtracting a tumor weight from a corresponding gross body weight with the tumor.
# Summary statistics, including mean and the standard error of the mean (SEM), are provided for the tumor volume of each group at each time point. Statistical analysis of difference in tumor volume among groups was conducted on a data set either at the best therapeutic time point or at the final dosing day as indicated. The tumor volume data were log-transformed and evaluated using a one-way ANOVA followed by Tukey's test when significance was observed. All data were analyzed using SPSS 16.0 and p<0.05 was considered to be statistically significant.
# Murine Lewis lung cancer cell line LLC (ATCC) was cultured as described for LNCaP in Example 1 except DMEM, instead of RPMI-1640, medium being used. Each female C57BL/6 mice, 6 to 8 weeks of age, was inoculated with 3×10^5 LLC cells in 0.1 ml of PBS for tumor development. ITE treatment was started when a mean tumor volume reached 80 to 120 mm^3. All the other materials and methodologies were the same as that described in Example 1.
# [3] = iv, 1 mg/kg b.w. bolus i.v. in DMSO
structure (smiles),measurement,setting,value
"COC(=O)c1csc(C(=O)c2c[nH]c3ccccc23)n1 [ITE, 2-(1′H-indole-3′-carbonyl)-thiazole-4-carboxylic acid methyl ester]",efficiency of absorption compared with i.v. injection,[1]; i.p. injection in DMSO,below 10%
same,AUC,"[1]; ip, 10 mg/kg b.w. i.p. in DMSO",197 ng·h/mL
same,half-life,"[1]; ip, 10 mg/kg b.w. i.p. in DMSO",1.13 h
same,AUC,"[1]; ip, 40 mg/kg b.w. i.p. in DMSO",332 ng·h/mL
same,half-life,"[1]; ip, 40 mg/kg b.w. i.p. in DMSO",1.61 h
same,AUC,"[1]; ip, 80 mg/kg b.w. i.p. in DMSO",499 ng·h/mL
same,half-life,"[1]; ip, 80 mg/kg b.w. i.p. in DMSO",5.17 h
same,AUC,[1]; [3],256 ng·h/mL
same,half-life,[1]; [3],0.1 h
same,AUC,"[1]; po, 40 mg/kg b.w. p.o. in Labrasol:PEG 400 (2:8, v/v)",107 ng·h/mL
same,AUC,"[1]; po, 80 mg/kg b.w. p.o. in Labrasol:PEG 400 (2:8, v/v)",97 ng·h/mL
same,absorption efficiency,"[1]; p.o. in Labrasol:PEG 400 (2:8, v/v)",around 1%
same,TGI (Tumor Growth Inhibition),"[2]; 20 mg/kg b.w. i.p. once daily, day 15",65%
same,tolerability by body weight change monitoring,[2]; 80 mg/kg b.w. i.p. once daily,tolerated well
same,tumor elimination in one mouse of the ITE group (mouse No. 33),"[2]; 80 mg/kg b.w. i.p. once daily for 28 days, stayed tumor free for one more month of observation",its tumor was no longer palpable at day 13
same,TGD (Tumor Growth Delay),"[2]; 80 mg/kg b.w. i.p. once daily, at a tumor volume of 1000 mm^3",7 days
same,TGI (Tumor Growth Inhibition),"[2]; 80 mg/kg b.w. i.p. once daily, day 20",42%
